Common to all, as to type: functional
Test [1] concerns Staphylococcus aureus. As to the kind of experiment: Antibacterial activity against methicillin-resistant Staphylococcus aureus 01-483 by broth microdilution method. For orientation: Broth dilution looks for growth in wells or tubes with falling amounts of substance.
The test system of test [2] is Streptococcus pneumoniae. As to the kind of experiment: Antibacterial activity against erythromycin-resistant Streptococcus pneumoniae 03-436 by broth microdilution method.
Test [3] concerns Staphylococcus aureus. Put plainly: Antibacterial activity against methicillin-resistant Staphylococcus aureus 01-429 by broth microdilution method.
Test [4] relates to Streptococcus pyogenes. As to the kind of experiment: Antibacterial activity against erythromycin-susceptible Streptococcus pyogenes 01-469 by broth microdilution method.
Test [5] has as its system Staphylococcus epidermidis. Put plainly: Antibacterial activity against methicillin-resistant Staphylococcus epidermidis 01-1056 by broth microdilution method.
The subject of test [6] is Staphylococcus aureus. As to the kind of experiment: Antibacterial activity against methicillin-sensitive Staphylococcus aureus 01-481 by broth microdilution method.
In test [7] the test system is Staphylococcus epidermidis. Put plainly: Antibacterial activity against methicillin-resistant Staphylococcus epidermidis 01-1059 by broth microdilution method.
The test system of test [8] is Staphylococcus epidermidis. Put plainly: Antibacterial activity against methicillin-sensitive Staphylococcus epidermidis 01-1091 by broth microdilution method.
In test [9] the test system is Staphylococcus epidermidis. Put plainly: Antibacterial activity against methicillin-resistant Staphylococcus epidermidis 01-1090 by broth microdilution method.
The test system of test [10] is Streptococcus pneumoniae. Put plainly: Antibacterial activity against Streptococcus pneumoniae ATCC 49619 by broth microdilution method.
The subject of test [11] is Streptococcus pyogenes. As to the kind of experiment: Antibacterial activity against erythromycin-resistant Streptococcus pyogenes 03-680 by broth microdilution method.
For test [12], the system named is Staphylococcus aureus. As to the kind of experiment: Antibacterial activity against methicillin-resistant Staphylococcus aureus 01-433 by broth microdilution method.
Test [13] deals with Staphylococcus epidermidis. Put plainly: Antibacterial activity against methicillin-sensitive Staphylococcus epidermidis 01-1004 by broth microdilution method.
Test [14] deals with Streptococcus pyogenes. Put plainly: Antibacterial activity against erythromycin-susceptible Streptococcus pyogenes 01-804 by broth microdilution method.
Test [15] concerns Streptococcus pyogenes. As to the kind of experiment: Antibacterial activity against erythromycin-susceptible Streptococcus pyogenes 01-740 by broth microdilution method.
For test [16], the system named is Streptococcus pneumoniae. As to the kind of experiment: Antibacterial activity against erythromycin-resistant Streptococcus pneumoniae 03-458 by broth microdilution method.
The subject of test [17] is Staphylococcus aureus. Put plainly: Antibacterial activity against methicillin-sensitive Staphylococcus aureus 01-431 by broth microdilution method.
Test [18] relates to Streptococcus pneumoniae. Put plainly: Antibacterial activity against erythromycin-resistant Streptococcus pneumoniae 03-451 by broth microdilution method.
Test [19] has as its system Staphylococcus aureus. Put plainly: Antibacterial activity against methicillin-sensitive Staphylococcus aureus 01-430 by broth microdilution method.
For test [20], the system named is Staphylococcus epidermidis. As to the kind of experiment: Antibacterial activity against methicillin-sensitive Staphylococcus epidermidis 01-1005 by broth microdilution method.

Converted amounts (≈) assume the structure as drawn.

As usually defined, the MIC is the lowest concentration that inhibits growth of the organism. Low values mean greater potency, high ones weaker potency.

In the case of `C=CCO[C@@H]1C[C@@H](C)C(=O)[C@H](C)[C@H]2OC(=O)O[C@]2(C)[C@@H](CC)OC(=O)[C@H](C)[C@@H](OC(=O)Cc2cccnc2)[C@H](C)[C@H]1O[C@@H]1O[C@H](C)C[C@H](N(C)C)[C@H]1O`, the MIC with Staphylococcus aureus [1] is 8 µg/mL (≈ 10.7 µM); in the test on Streptococcus pneumoniae [2], 2 µg/mL (≈ 2.68 µM); in the test with Staphylococcus aureus [3], 32 µg/mL (≈ 42.8 µM); in the test on Streptococcus pyogenes [4], 0.125 µg/mL (≈ 0.167 µM); in test [5], 32 µg/mL (≈ 42.8 µM); with Staphylococcus aureus [6], 2 µg/mL (≈ 2.68 µM). For the same molecule, the MIC in test [7] worked out at 32 µg/mL (≈ 42.8 µM); in test [8], 0.5 µg/mL (≈ 0.669 µM); in test [9], 2 µg/mL (≈ 2.68 µM); with Streptococcus pneumoniae [10], 0.25 µg/mL (≈ 0.335 µM); in the test with Streptococcus pyogenes [11] it was 16 µg/mL (≈ 21.4 µM); with Staphylococcus aureus [12], 32 µg/mL (≈ 42.8 µM). Also, the MIC in [13] was determined as 0.5 µg/mL (≈ 0.669 µM); in the test on Streptococcus pyogenes [14] it was 0.125 µg/mL (≈ 0.167 µM); with Streptococcus pyogenes [15], 0.125 µg/mL (≈ 0.167 µM); with Streptococcus pneumoniae [16] it was 2 µg/mL (≈ 2.68 µM); in the test with Staphylococcus aureus [17], 1 µg/mL (≈ 1.34 µM); against Streptococcus pneumoniae [18], 2 µg/mL (≈ 2.68 µM). Also, the MIC against Staphylococcus aureus [19] came out at 1 µg/mL (≈ 1.34 µM); in test [20], 0.5 µg/mL (≈ 0.669 µM).

For the molecule `C=CCO[C@@H]1C[C@@H](C)C(=O)[C@H](C)[C@H]2OC(=O)O[C@]2(C)[C@@H](CC)OC(=O)[C@H](C)[C@@H](OC(=O)Cc2c[nH]c3ccccc23)[C@H](C)C1O[C@@H]1O[C@H](C)C[C@H](N(C)C)[C@H]1O` (stereo not given in full), the MIC against Staphylococcus aureus [1] turned out to be 16 µg/mL (≈ 20.4 µM); in the test on Streptococcus pneumoniae [2] it was 32 µg/mL (≈ 40.8 µM); in the test with Staphylococcus aureus [3] it was 16 µg/mL (≈ 20.4 µM); against Streptococcus pyogenes [4] it was 0.5 µg/mL (≈ 0.637 µM); in [5] it was 32 µg/mL (≈ 40.8 µM); against Staphylococcus aureus [6] it was 16 µg/mL (≈ 20.4 µM). Further, the MIC in [7] stood at 32 µg/mL (≈ 40.8 µM); in test [8], 4 µg/mL (≈ 5.1 µM); in test [9] it was 32 µg/mL (≈ 40.8 µM); in the test on Streptococcus pneumoniae [10] it was 2 µg/mL (≈ 2.55 µM); against Streptococcus pyogenes [11], 16 µg/mL (≈ 20.4 µM); in the test on Staphylococcus aureus [12] it was 16 µg/mL (≈ 20.4 µM). For the same molecule, the MIC in [13] turned out to be 4 µg/mL (≈ 5.1 µM); with Streptococcus pyogenes [14], 0.5 µg/mL (≈ 0.637 µM); against Streptococcus pyogenes [15], 0.5 µg/mL (≈ 0.637 µM); with Streptococcus pneumoniae [16], 32 µg/mL (≈ 40.8 µM); in the test with Staphylococcus aureus [17] it was 8 µg/mL (≈ 10.2 µM); against Streptococcus pneumoniae [18] it was 16 µg/mL (≈ 20.4 µM). The MIC was found to be 8 µg/mL (≈ 10.2 µM) with Staphylococcus aureus [19] and 4 µg/mL (≈ 5.1 µM) in [20].

Consider `C=CCO[C@@H]1C[C@@H](C)C(=O)[C@H](C)[C@H]2OC(=O)O[C@]2(C)[C@@H](CC)OC(=O)[C@H](C)[C@@H](OC(=O)Cc2ccc(Cl)cc2)[C@H](C)[C@H]1OC1O[C@H](C)C[C@H](N(C)C)[C@H]1O` (stereo not given in full), for which the MIC against Staphylococcus aureus [1] worked out at 16 µg/mL (≈ 20.5 µM); in the test with Streptococcus pneumoniae [2], 16 µg/mL (≈ 20.5 µM); in the test on Staphylococcus aureus [3], 16 µg/mL (≈ 20.5 µM); against Streptococcus pyogenes [4] it was 0.5 µg/mL (≈ 0.641 µM); in test [5], 32 µg/mL (≈ 41 µM); with Staphylococcus aureus [6], 8 µg/mL (≈ 10.3 µM). Besides, the MIC came out at 16 µg/mL (≈ 20.5 µM) in test [7]; 2 µg/mL (≈ 2.56 µM) in test [8]; 16 µg/mL (≈ 20.5 µM) in [9]; 1 µg/mL (≈ 1.28 µM) with Streptococcus pneumoniae [10]; 8 µg/mL (≈ 10.3 µM) in the test on Streptococcus pyogenes [11]; 16 µg/mL (≈ 20.5 µM) against Staphylococcus aureus [12]. Besides, the minimal inhibitory concentration (MIC) in test [13] was found to be 2 µg/mL (≈ 2.56 µM); in the test with Streptococcus pyogenes [14], 0.5 µg/mL (≈ 0.641 µM); against Streptococcus pyogenes [15], 0.25 µg/mL (≈ 0.32 µM); in the test on Streptococcus pneumoniae [16], 8 µg/mL (≈ 10.3 µM); in the test with Staphylococcus aureus [17], 4 µg/mL (≈ 5.13 µM); against Streptococcus pneumoniae [18], 8 µg/mL (≈ 10.3 µM). For the same molecule, the MIC in the test on Staphylococcus aureus [19] stood at 4 µg/mL (≈ 5.13 µM); in test [20], 2 µg/mL (≈ 2.56 µM).

As to `C=CCO[C@@H]1C[C@@H](C)C(=O)[C@H](C)[C@H]2OC(=O)O[C@]2(C)[C@@H](CC)OC(=O)[C@H](C)[C@@H](OC(=O)CCc2c[nH]c3ccccc23)[C@H](C)[C@H]1O[C@@H]1O[C@H](C)C[C@H](N(C)C)[C@H]1O`, the MIC in the test with Staphylococcus aureus [1] was 32 µg/mL (≈ 40.1 µM); in the test with Streptococcus pneumoniae [2], 32 µg/mL (≈ 40.1 µM); with Staphylococcus aureus [3], 32 µg/mL (≈ 40.1 µM); with Streptococcus pyogenes [4] it was 1 µg/mL (≈ 1.25 µM); in [5], 32 µg/mL (≈ 40.1 µM); against Staphylococcus aureus [6], 32 µg/mL (≈ 40.1 µM). Also, the MIC was 32 µg/mL (≈ 40.1 µM) in test [7]; 32 µg/mL (≈ 40.1 µM) in [8]; 32 µg/mL (≈ 40.1 µM) in test [9]; 4 µg/mL (≈ 5.01 µM) with Streptococcus pneumoniae [10]; 32 µg/mL (≈ 40.1 µM) in the test on Streptococcus pyogenes [11]; 32 µg/mL (≈ 40.1 µM) against Staphylococcus aureus [12]. Moreover, the MIC was 32 µg/mL (≈ 40.1 µM) in test [13]; 1 µg/mL (≈ 1.25 µM) against Streptococcus pyogenes [14]; 1 µg/mL (≈ 1.25 µM) in the test on Streptococcus pyogenes [15]; 32 µg/mL (≈ 40.1 µM) in the test with Streptococcus pneumoniae [16]; 32 µg/mL (≈ 40.1 µM) in the test on Staphylococcus aureus [17]; 32 µg/mL (≈ 40.1 µM) against Streptococcus pneumoniae [18]. For the same molecule, the MIC (in the test with Staphylococcus aureus [19]; in test [20]) was 32 µg/mL (≈ 40.1 µM) each time.

`CC[C@H]1OC(=O)[C@H](C)[C@@H](O[C@H]2C[C@@](C)(OC)[C@@H](O)[C@H](C)O2)[C@H](C)[C@@H](O[C@@H]2O[C@H](C)C[C@H](N(C)C)[C@H]2O)[C@](C)(OC)C[C@@H](C)C(=O)[C@H](C)[C@@H](O)[C@]1(C)O` [CLARITHROMYCIN]: the MIC against Staphylococcus aureus [1] was determined as 256 µg/mL (≈ 342 µM); against Streptococcus pneumoniae [2], 128 µg/mL (≈ 171 µM); in the test with Staphylococcus aureus [3], 256 µg/mL (≈ 342 µM); against Streptococcus pyogenes [4] it was 0.062 µg/mL (≈ 0.0829 µM); in test [5] it was 256 µg/mL (≈ 342 µM); with Staphylococcus aureus [6], 0.5 µg/mL (≈ 0.668 µM). The MIC stood at 256 µg/mL (≈ 342 µM) in [7]; 0.125 µg/mL (≈ 0.167 µM) in [8]; 256 µg/mL (≈ 342 µM) in [9]; 0.25 µg/mL (≈ 0.334 µM) with Streptococcus pneumoniae [10]; 256 µg/mL (≈ 342 µM) against Streptococcus pyogenes [11]; 256 µg/mL (≈ 342 µM) with Staphylococcus aureus [12]. Moreover, the MIC in test [13] is 0.125 µg/mL (≈ 0.167 µM); in the test with Streptococcus pyogenes [14], 0.125 µg/mL (≈ 0.167 µM); in the test with Streptococcus pyogenes [15], 0.062 µg/mL (≈ 0.0829 µM); in the test on Streptococcus pneumoniae [16] it was 256 µg/mL (≈ 342 µM); against Staphylococcus aureus [17], 0.25 µg/mL (≈ 0.334 µM); with Streptococcus pneumoniae [18], 32 µg/mL (≈ 42.8 µM). The MIC with Staphylococcus aureus [19] was 0.25 µg/mL (≈ 0.334 µM); in test [20], 0.125 µg/mL (≈ 0.167 µM).
